From patent publication US20260226068A1, “IMIDAZOTRIAZINE IL-17A MODULATORS AND USES THEREOF” (DICE ALPHA, INC., priority 2023, published 2026)

Assays:
IL-17A/A = target: T1, IL-17A/A (Homo sapiens, UniProt Q16552); experiment: IL-17A/A HEK-Blue cell assay (SEAP reporter); assay type: cell-based; details: HEK-Blue IL-17A reporter cells, IL17A/A 5 ng/mL, 20 hours, SEAP read at A630; read-out: HEK-Blue IL17AA (IC50 for IL-17A/A inhibition)
T1 construct: purchased Genscript Z03228
T1 sequence (Q16552 24-155): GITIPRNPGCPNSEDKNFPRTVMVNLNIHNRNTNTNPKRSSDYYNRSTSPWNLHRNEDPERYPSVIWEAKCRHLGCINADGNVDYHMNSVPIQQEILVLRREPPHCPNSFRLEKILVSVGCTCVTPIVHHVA

IL-17A/F = target: T2, IL-17A/F (Homo sapiens, UniProt Q16552+Q96PD4); experiment: IL-17A/F HEK-Blue cell assay (SEAP reporter); assay type: cell-based; details: HEK-Blue IL-17A reporter cells, IL17A/F 5 ng/mL, 20 hours, SEAP read at A630; read-out: HEK-Blue IL17AF (IC50 for IL-17A/F inhibition)
T2 construct: purchased R&D Systems
T2 sequence (Q16552 24-155): T1 sequence (Q16552 24-155)
T2 sequence (Q96PD4 31-163): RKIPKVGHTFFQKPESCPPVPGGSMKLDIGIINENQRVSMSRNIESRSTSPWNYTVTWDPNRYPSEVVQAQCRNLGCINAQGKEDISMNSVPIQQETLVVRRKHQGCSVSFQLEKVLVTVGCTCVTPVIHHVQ

Row | IC50 (IL-17A/A) [nM] | IC50 (IL-17A/F) [nM] | Structure (SMILES)
1 | < 100 | > 1000 | CCn1nccc1C(=O)N[C@H](c1cn2nc(C[C@H]3C[C@@H](C(F)(F)F)CNC3=O)c(C3CNC3)nc2n1)C1CCC(F)(F)CC1 [Compound 301, N—((S)-(3-(azetidin-3-yl)-2-(((3R,5R)-2-oxo-5-(trifluoromethyl)piperidin-3-yl)methyl)imidazo[1,2-b][1,2,4]triazin-6-yl)(4,4-difluorocyclohexyl)methyl)-1-ethyl-1H-pyrazole-5-carboxamide]
2 | < 100 | > 1000 | CCn1nccc1C(=O)N[C@H](c1cn2nc(C[C@H]3C[C@@H](C(F)(F)F)CNC3=O)c(C3CN(C)C3)nc2n1)C1CCC(F)(F)CC1 [Compound 302, N—((S)-(4,4-difluorocyclohexyl)(3-(1-methylazetidin-3-yl)-2-(((3R,5R)-2-oxo-5-(trifluoromethyl)piperidin-3-yl)methyl)imidazo[1,2-b][1,2,4]triazin-6-yl)methyl)-1-ethyl-1H-pyrazole-5-carboxamide]
3 | < 100 | > 1000 | CCn1nccc1C(=O)N[C@H](c1cn2nc(C[C@H]3C[C@@H](C)CNC3=O)c(C3CCOCC3)nc2n1)C1CCC(F)(F)CC1 [Compound 303]
4 | < 100 | > 1000 | CCn1nccc1C(=O)N[C@H](c1cn2nc(C[C@@H]3C[C@@H](C)CNC3=O)c(C3CCOCC3)nc2n1)C1CCC(F)(F)CC1 [Compound 304]
5 | < 100 | < 100 | CCn1nccc1C(=O)N[C@H](c1cn2nc(C[C@H]3C[C@H](C(F)(F)F)CNC3=O)c(N3CCO[C@H](C)C3)nc2n1)[C@@H]1CCCC(F)(F)C1 [Compound 305, N—((S)—((R)-3,3-difluorocyclohexyl)(3-((R)-2-methylmorpholino)-2-(((3R,5S)-2-oxo-5-(trifluoromethyl)piperidin-3-yl)methyl)imidazo[1,2-b][1,2,4]triazin-6-yl)methyl)-1-ethyl-1H-pyrazole-5-carboxamide]
6 | < 100 | 100 to 1000 | CCn1nccc1C(=O)N[C@H](c1cn2nc(C[C@H]3C[C@H](C(F)(F)F)CNC3=O)c(N3CCO[C@@H](C)C3)nc2n1)[C@@H]1CCCC(F)(F)C1 [Compound 306, N—((S)—((R)-3,3-difluorocyclohexyl)(3-((S)-2-methylmorpholino)-2-(((3R,5S)-2-oxo-5-(trifluoromethyl)piperidin-3-yl)methyl)imidazo[1,2-b][1,2,4]triazin-6-yl)methyl)-1-ethyl-1H-pyrazole-5-carboxamide]
7 | < 100 | < 100 | C[C@@H]1CN(c2nc3nc([C@@H](NC(=O)c4ccnn4C)[C@@H]4CCCC(F)(F)C4)cn3nc2C[C@H]2C[C@@H](C(F)(F)F)CNC2=O)CCO1 [Compound 307, N—((S)—((R)-3,3-difluorocyclohexyl)(3-((R)-2-methylmorpholino)-2-(((3R,5R)-2-oxo-5-(trifluoromethyl)piperidin-3-yl)methyl)imidazo[1,2-b][1,2,4]triazin-6-yl)methyl)-1-methyl-1H-pyrazole-5-carboxamide]
8 | < 100 | 100 to 1000 | C[C@@H]1CN(c2nc3nc([C@@H](NC(=O)c4ccnn4C)[C@@H]4CCCC(F)(F)C4)cn3nc2C[C@H]2C[C@H](C(F)(F)F)CNC2=O)CCO1 [Compound 309, N—((S)—((R)-3,3-difluorocyclohexyl)(3-((R)-2-methylmorpholino)-2-(((3R,5S)-2-oxo-5-(trifluoromethyl)piperidin-3-yl)methyl)imidazo[1,2-b][1,2,4]triazin-6-yl)methyl)-1-methyl-1H-pyrazole-5-carboxamide]
9 | < 100 | > 1000 | Cc1nonc1C(=O)N[C@H](c1cn2nc(C[C@H]3C[C@@H](C(F)(F)F)CNC3=O)c(C3CCOCC3)nc2n1)C1CC2(C1)CC(F)(F)C2 [Compound 314, N—((S)-(6,6-difluorospiro[3.3]heptan-2-yl)(2-(((3R,5R)-2-oxo-5-(trifluoromethyl)piperidin-3-yl)methyl)-3-(tetrahydro-2H-pyran-4-yl)imidazo[1,2-b][1,2,4]triazin-6-yl)methyl)-4-methyl-1,2,5-oxadiazole-3-carboxamide]

The next lines start with the compound.

Row | Structure (SMILES) | IC50 (IL-17A/A) [nM] | IC50 (IL-17A/F) [nM]
10 | CCn1nccc1C(=O)N[C@H](c1cn2nc(C[C@H]3C[C@@H](C(F)(F)F)CNC3=O)c(N3CCN(C)CC3)nc2n1)C1CCC(F)(F)CC1 [Compound 296, N—((S)-(4,4-difluorocyclohexyl)(3-(4-methylpiperazin-1-yl)-2-(((3R,5R)-2-oxo-5-(trifluoromethyl)piperidin-3-yl)methyl)imidazo[1,2-b][1,2,4]triazin-6-yl)methyl)-1-ethyl-1H-pyrazole-5-carboxamide] | < 100 | 100 to 1000
11 | CCn1nccc1C(=O)N[C@H](c1cn2nc(C[C@H]3CC(F)(F)CNC3=O)c(C3CCOCC3)nc2n1)[C@H]1CC[C@H](C)CC1 [Compound 297] | < 100 | 100 to 1000
12 | CCn1nccc1C(=O)N[C@H](c1cn2nc(C[C@H]3C[C@@H](C(F)(F)F)CNC3=O)c(N3CCN(C)[C@H](C)C3)nc2n1)C1CCC(F)(F)CC1 [Compound 298, N—((S)-(4,4-difluorocyclohexyl)(3-((R)-3,4-dimethylpiperazin-1-yl)-2-(((3R,5R)-2-oxo-5-(trifluoromethyl)piperidin-3-yl)methyl)imidazo[1,2-b][1,2,4]triazin-6-yl)methyl)-1-ethyl-1H-pyrazole-5-carboxamide] | < 100 | < 100
13 | CCn1nccc1C(=O)N[C@H](c1cn2nc(C[C@H]3C[C@@H](C(F)(F)F)CNC3=O)c(C3CCNCC3)nc2n1)C1CCC(F)(F)CC1 [Compound 299, N—((S)-(4,4-difluorocyclohexyl)(2-(((3R,5R)-2-oxo-5-(trifluoromethyl)piperidin-3-yl)methyl)-3-(piperidin-4-yl)imidazo[1,2-b][1,2,4]triazin-6-yl)methyl)-1-ethyl-1H-pyrazole-5-carboxamide] | 100 to 1000 | > 1000
14 | CCn1nccc1C(=O)N[C@H](c1cn2nc(C[C@H]3C[C@@H](C(F)(F)F)CNC3=O)c(C3CCN(C)CC3)nc2n1)C1CCC(F)(F)CC1 [Compound 300, N—((S)-(4,4-difluorocyclohexyl)(3-(1-methylpiperidin-4-yl)-2-(((3R,5R)-2-oxo-5-(trifluoromethyl)piperidin-3-yl)methyl)imidazo[1,2-b][1,2,4]triazin-6-yl)methyl)-1-ethyl-1H-pyrazole-5-carboxamide] | 100 to 1000 | > 1000
15 | C[C@H]1CN(c2nc3nc([C@@H](NC(=O)c4ccnn4C)[C@@H]4CCCC(F)(F)C4)cn3nc2C[C@H]2C[C@@H](C(F)(F)F)CNC2=O)CCO1 [Compound 308, N—((S)—((R)-3,3-difluorocyclohexyl)(3-((S)-2-methylmorpholino)-2-(((3R,5R)-2-oxo-5-(trifluoromethyl)piperidin-3-yl)methyl)imidazo[1,2-b][1,2,4]triazin-6-yl)methyl)-1-methyl-1H-pyrazole-5-carboxamide] | < 100 | 100 to 1000
16 | C[C@H]1CN(c2nc3nc([C@@H](NC(=O)c4ccnn4C)[C@@H]4CCCC(F)(F)C4)cn3nc2C[C@H]2C[C@H](C(F)(F)F)CNC2=O)CCO1 [Compound 310, N—((S)—((R)-3,3-difluorocyclohexyl)(3-((S)-2-methylmorpholino)-2-(((3R,5S)-2-oxo-5-(trifluoromethyl)piperidin-3-yl)methyl)imidazo[1,2-b][1,2,4]triazin-6-yl)methyl)-1-methyl-1H-pyrazole-5-carboxamide] | < 100 | 100 to 1000
17 | Cc1nonc1C(=O)N[C@H](c1cn2nc(C[C@H]3C[C@@H](C(F)(F)F)CNC3=O)c(N3CCN(C)CC3)nc2n1)C1CCC(F)(F)CC1 [Compound 311, N—((S)-(4,4-difluorocyclohexyl)(3-(4-methylpiperazin-1-yl)-2-(((3R,5R)-2-oxo-5-(trifluoromethyl)piperidin-3-yl)methyl)imidazo[1,2-b][1,2,4]triazin-6-yl)methyl)-4-methyl-1,2,5-oxadiazole-3-carboxamide] | < 100 | > 1000
18 | CCc1nonc1C(=O)N[C@H](c1cn2nc(C[C@H]3C[C@@H](C(F)(F)F)CNC3=O)c(N3CCN(C)CC3)nc2n1)C1CCC(F)(F)CC1 [Compound 312, N—((S)-(4,4-difluorocyclohexyl)(3-(4-methylpiperazin-1-yl)-2-(((3R,5R)-2-oxo-5-(trifluoromethyl)piperidin-3-yl)methyl)imidazo[1,2-b][1,2,4]triazin-6-yl)methyl)-4-ethyl-1,2,5-oxadiazole-3-carboxamide] | < 100 | > 1000
19 | Cc1nonc1C(=O)N[C@H](c1cn2nc(C[C@H]3C[C@@H](C(F)(F)F)CNC3=O)c(C3CCOCC3)nc2n1)C1CCCCC1 [Compound 313, N—((S)-cyclohexyl(2-(((3R,5R)-2-oxo-5-(trifluoromethyl)piperidin-3-yl)methyl)-3-(tetrahydro-2H-pyran-4-yl)imidazo[1,2-b][1,2,4]triazin-6-yl)methyl)-4-methyl-1,2,5-oxadiazole-3-carboxamide] | < 100 | > 1000
20 | CCc1nonc1C(=O)N[C@H](c1cn2nc(C[C@H]3C[C@@H](C(F)(F)F)CNC3=O)c(C3CCOCC3)nc2n1)C1CC2(C1)CC(F)(F)C2 [Compound 315, N—((S)-(6,6-difluorospiro[3.3]heptan-2-yl)(2-(((3R,5R)-2-oxo-5-(trifluoromethyl)piperidin-3-yl)methyl)-3-(tetrahydro-2H-pyran-4-yl)imidazo[1,2-b][1,2,4]triazin-6-yl)methyl)-4-ethyl-1,2,5-oxadiazole-3-carboxamide] | < 100 | > 1000
